Assay results published in patent US12201656B2, “Selection of bacterial strains useful in allergy treatment” (BioGaia AB, priority 2016, dated 2025).

Test system: phosphorylated PKC (pPKC)
Experiment: Mouse enteroid experiment, pPKC Western blot
Type: cell-based
Details: DGK inhibitor 2 μM in the presence of wild-type L. reuteri PTA-6475 conditioned media, 45 min
Procedure: FIGS. 5a and 5b illustrate that a commercially available DagK inhibitor (DGK inhi) prevents L. reuteri derived-DagK mediated protein kinase C (PKC) phosphorylation in mouse enteroids. FIG. 5a illustrates a Western blot analysis showing proteins isolated from mouse ileal enteroids of 10 week-old germ free (GF) male mice treated with only media control (LDM-4), WT Lr (WT Lr grown in LDM4), DagK inhibitor and DagK inhibitor with WT Lr for 45 min targeting mammalian phosphorylated PKC (pPKC). 10 μg proteins were loaded into each well of an SDS gel. The pPKC synthesis ratio was obtained by image-J analysis where pPKC of […] was set to 1 and used as baseline. FIG. 5b Mean values of n=3 showing pPKC protein concentration (loaded 10 μg) and quantified by densitometry using image-J. GF control groups were set to 1. *P<0.05, **P<0.01, ***P<0.001. n=10 mice per group. One-Way analysis of variance with Bonferroni correction.
Mouse enteroids (contains only intestinal epithelial layer) were derived from 10 week-old germ free (GF) BALB/c mouse. The enteroids were grown to form a monolayer and were induced with LDM4 media (control), wild-type L. reuteri PTA-6475 conditioned media (50 to 3 kDa cut off), diacylglycerol kinase (DGK) inhibitor (2 μM) only or DGK inhibitor (2 μM) with wild-type L. reuteri PTA-6475 conditioned media (CM; 50 to 3 kDa cut off). […]

Cc1nc2sccn2c(=O)c1CCN1CCC(=C(c2ccccc2)c2ccc(F)cc2)CC1 [DGK inhibitor, 6-[2-(4-[(4-fluorophenyl)phenylmethylene]-1-piperidinyl)ethyl]-7-methyl-5H-thiazolo-[3,2-a]pyrimidine-5-one]
PKC phosphorylation: increased PKC phosphorylation
